In the OligoGym collection:
“And” between values parts separate entries of the source, which are not always exact repeats. Equal entries are not always repeated. After the bases stand the sugars from the 5' end (letter, count) and the backbone: PS all phosphorothioate, else s phosphorothioate and o phosphodiester by linkage. Methylation of C is not given here. e = 2'-O-(2-methoxyethyl) (MOE); k = constrained ethyl (cEt); d = 2'-deoxy (DNA)

Biological target: IRF4
Details: ASO

| Sequence | target mRNA inhibition (SK-MEL-28, 4 µM) | target mRNA inhibition (MM.1R, 1 µM) | further results |
| --- | --- | --- | --- |
| ATACATTTCTTTTACG (sugars k3 d10 k3, PS) | 22% |  |  |
| GACAGCCGAAGCATTT (sugars k3 d10 k3, PS) |  | 6% |  |
| GCCAAGGACACCACCT (sugars k3 d10 k3, PS) | -2% |  |  |
| CGCTGGACAGCCAAAC (sugars k3 d10 k3, PS) | 41% |  |  |
| TCACCTGGCAACCTGC (sugars k3 d10 k3, PS) | 25% |  |  |
| GTAGACCACAGTGAAG (sugars k3 d10 k3, PS) | 29% |  |  |
| GACCTAATCTACAACA (sugars k3 d10 k3, PS) | 33% |  |  |
| GCAAAACCAGTACAGT (sugars k3 d10 k3, PS) | 58% | 11% | target mRNA inhibition (MM.1R, 0.0625 µM): 3%; target mRNA inhibition (MM.1R, 0.074 µM): 17%; target mRNA inhibition (MM.1R, 0.222 µM): 0%; target mRNA inhibition (MM.1R, 0.25 µM): 6%; target mRNA inhibition (MM.1R, 0.666 µM): 4%; target mRNA inhibition (MM.1R, 2 µM): 13%; target mRNA inhibition (MM.1R, 4 µM): 26% |
| AGTAACTTGACTTGAG (sugars k3 d10 k3, PS) |  | -3% |  |
| TGTCAATACTGAAAGG (sugars k3 d10 k3, PS) | 36% |  |  |
| CACACTGCCGTGATCT (sugars k3 d10 k3, PS) |  | 20% |  |
| TTCCGGGTGTGGCTGA (sugars k3 d10 k3, PS) |  | 25% |  |
| GTAATTTTAAGGCCCT (sugars k3 d10 k3, PS) | 55% |  |  |
| AGCTTGATAAAGGCTG (sugars kdddddddddkekeke, PS) |  | 2% |  |
| TTCCATGCTTGTCTCG (sugars k3 d10 k3, PS) | 62% |  |  |
| AAGGGAACAGATAGTT (sugars k3 d10 k3, PS) | 20% |  |  |
| GAAGCATTTTATCATC (sugars kddddddddddkekek, PS) |  | -12% |  |
| CTTGATAAAGGCTGAA (sugars kdddddddddkekeke, PS) |  | 5% |  |
| GACCACAGTGAAGTCG (sugars k3 d10 k3, PS) | 14% |  |  |
| ATAGTAAGTTCTAGTC (sugars k3 d10 k3, PS) |  | 11% |  |
| AGCAGTGATGTCAGGT (sugars kkdddddddddkdkdk, PS) |  | 55% and 48% |  |
| TTACTAGGTGCTTGTT (sugars k3 d10 k3, PS) | 50% |  |  |
| TACTGCTTGAGGTTTT (sugars k3 d9 k3 e1, PS) |  | 13% |  |
| CATGATAAGGCACTAC (sugars k3 d10 k3, PS) |  | -6% |  |
| GGAAGTTTACACTGGA (sugars kkkdddddddddkeke, PS) |  | 78% | target mRNA inhibition (MM.1R, 0.074 µM): 22%; target mRNA inhibition (MM.1R, 0.222 µM): 46%; target mRNA inhibition (MM.1R, 0.666 µM): 74%; target mRNA inhibition (MM.1R, 2 µM): 91% |
| GCCTAGAGGTGCCTTC (sugars k3 d10 k3, PS) |  | 13% |  |

| Sequence | target mRNA inhibition (SK-MEL-28, 4 µM) | target mRNA inhibition (MM.1R, 1 µM) | further results |
| --- | --- | --- | --- |
| GTAGAGGAGGAGGACT (sugars k3 d10 k3, PS) | 16% |  |  |
| ACTTTGTACGGGTCTG (sugars k3 d10 k3, PS) | 39% |  |  |
| AAATAAGATCCCACGA (sugars k3 d10 k3, PS) |  | -7% |  |
| CAAAGAGCTTGCAGGT (sugars k3 d10 k3, PS) | 4% |  |  |
| AAGACTATTAGATAAG (sugars k3 d10 k3, PS) | 22% |  |  |
| GGCAACAGTTCAAGTA (sugars k3 d10 k3, PS) | 57% |  |  |
| GTTGTAAATGAGTCGG (sugars k3 d10 k3, PS) | 87% and 81% |  |  |
| GGAACTCCCGAGGGCA (sugars k3 d10 k3, PS) |  | 13% |  |
| ACATTAAAGGGTAAGC (sugars k3 d10 k3, PS) |  | -23% |  |
| CAGTGATGTCAGGTTT (sugars kkkdddddddddkeke, PS) |  | 34% |  |
| CAAGAACTGCAGCTCC (sugars k3 d10 k3, PS) | 47% |  |  |
| CCACGAGGCCCCGGAG (sugars k3 d10 k3, PS) |  | 4% |  |
| GCCTTGAAGAGCGCGG (sugars k3 d10 k3, PS) | 9% |  |  |
| AGCCAGCCAGAGGTTC (sugars k3 d10 k3, PS) | 30% |  |  |
| CACCACCTCGAGGCCA (sugars k3 d10 k3, PS) | 24% |  |  |
| GTCCCCTCTACTTCAG (sugars k3 d10 k3, PS) | 41% |  |  |
| CATTGAGGCATACAGT (sugars k3 d10 k3, PS) | 55% |  |  |
| ACCTGGCAACCATTTT (sugars k3 d10 k3, PS) | 4% |  |  |
| CATAATCCAGTATCTG (sugars k3 d10 k3, PS) | 18% |  |  |
| CCCTACTGGGTACATG (sugars k3 d10 k3, PS) | 37% |  |  |
| CTCCAGCTTCGGTCGA (sugars k3 d10 k3, PS) |  | 9% |  |
| ATTCTTAGAATGCATA (sugars k3 d10 k3, PS) | 38% |  |  |
| TTATACTGTCTGGTTA (sugars k3 d10 k3, PS) | 44% |  |  |
| ACGGACTGGAACATTG (sugars k3 d10 k3, PS) |  | 38% |  |
| GTTGGCTGGTCTTTGT (sugars kkdddddddddekeke, PS) |  | 23% |  |
| AGGCACATCAATGTTT (sugars kkdddddddddkdkdk, PS) |  | 4% and 19% |  |

| Sequence | target mRNA inhibition (SK-MEL-28, 4 µM) | target mRNA inhibition (MM.1R, 1 µM) | further results |
| --- | --- | --- | --- |
| TCCTAACCCTACCCTT (sugars k3 d10 k3, PS) | 30% |  |  |
| CAGAATGTTTCGACAT (sugars k3 d10 k3, PS) |  | 14% |  |
| GACCACGAGGCCCCGG (sugars k3 d10 k3, PS) | 31% |  |  |
| CGTGTGCTTGCCAAGC (sugars kkddddddddddkeke, PS) |  | 55% and 45% |  |
| AACTAGTCGACAGCTA (sugars k3 d10 k3, PS) |  | -7% |  |
| CCTGTACACTTTGTAC (sugars k3 d10 k3, PS) |  | -2% |  |
| TGCCACAGTTGAACCC (sugars k3 d10 k3, PS) | 50% |  |  |
| AAAGAAACGAGTTGAC (sugars k3 d10 k3, PS) |  | 14% |  |
| ACGAGGTAAATCTTCA (sugars k3 d10 k3, PS) | 61% |  |  |
| GATGTGATAGCTGAGC (sugars kkdddddddddekeke, PS) |  | 53% |  |
| ACTTTTAGAGAGGAGA (sugars kddddddddddkekek, PS) |  | 32% |  |
| ACATTACTAGATTGTA (sugars k3 d10 k3, PS) | 41% |  |  |
| CCTGGCGGAGCATCAA (sugars k3 d10 k3, PS) | 42% |  |  |
| GCGGAGGTTCCTTGAG (sugars k3 d10 k3, PS) | 44% |  |  |
| TCTAAACCAGCATATT (sugars k3 d10 k3, PS) | 33% |  |  |
| CACATCACTTGGTCAA (sugars k3 d10 k3, PS) | 72% |  |  |
| AATACGACAACTTTCC (sugars k3 d10 k3, PS) | 50% |  |  |
| AAGAAGCACTGGCATC (sugars k3 d10 k3, PS) | 23% |  |  |
| CTAGGTTTCAGTTGTA (sugars k3 d10 k3, PS) | 54% |  |  |
| TTAGAATGCATAACAC (sugars k3 d10 k3, PS) | 44% |  |  |
| ATAAACACCTCAGCTG (sugars k3 d10 k3, PS) | 21% |  |  |
| TCCTGTAGTATGAGAA (sugars k3 d10 k3, PS) |  | 22% |  |
| TCAAAAGTCTTAAGGG (sugars k3 d10 k3, PS) | 7% |  |  |
| GATTAATTCTCCTATG (sugars k3 d10 k3, PS) |  | -19% |  |
